Test results as given in patent publication US20120252827A1, “COMBINATION OF THERAPY COMPRISING ZD6474 AND A TAXANE” (priority 2001, published 2012).

Tested on: GEO human colon cancer xenografts
Experiment: GEO human colon cancer xenograft model: ZD6474 dosed intraperitoneally
Format: in vivo, BALB/c athymic (nu+/nu+) mice
Details: GEO xenografts s.c. in mice; for Average time (days) from day 28 to reach an average tumour volume of 2 cm^3 (approximately 10% of mouse body weight): paclitaxel 400 μg/mouse i.p., ZD6474 100 mg/kg/day i.p.; for Average tumour volume on day 28 after tumour cell injection: treatment from day 7, paclitaxel 400 μg/mouse i.p. days 7, 14, 21, 28, ZD6474 100 mg/kg/day i.p. days 7-11, 14-18, 21-25, 28-32
Protocol: a) Geo Human Colon Cancer Xenograft Model: ZD6474 Dosed Intraperitoneally
Female BALB/c athymic (nu+/nu+) mice 4-6 weeks of age were injected subcutaneously (s.c.) with GEO human colon cancer cells (10^7 cells resuspended in 200 μl Matrigel) on day 0. Treatment was initiated on day 7 after s.c. implantation of GEO cells when the average tumour volume was 0.25 (+0.05) cm^3. 10 mice per group were treated either with intraperitoneal (i.p.) paclitaxel (400 μg/mouse) on days 7, 14, 21 and 28, or with ZD6474 (100 mg/kg/day i.p. suspended in a 1% (v/v) solution of polyoxyethylene (20) sorbitan mono-oleate in deionised water) on days 7-11, 14-18, 21-25 and 28-32, or with a combination of both agents. In the case of combination treatments, where mice received both agents on the same day, paclitaxel was given 10-15 minutes before ZD6474. Tumour size was measured using the formula π/6×larger diameter×(smaller diameter)^2.
The average tumour volume on day 28 following tumour cell injection in control mice, 1.95 (+0.15) cm^3, was approximately 10% of nude mouse body weight and mice in this group were sacrificed at this time. […] Statistical evaluations of time to reach a tumour volume of 2 cm^3 has been done using the Mantel-Cox logrank test with the following results: ZD6474 (100 mg/kg) versus control (p=0.001); paclitaxel+ZD6474 (100 mg/kg) versus control (p=0.0001); paclitaxel+ZD6474 (100 mg/kg) versus paclitaxel (p=0.001); paclitaxel+ZD6474 (100 mg/kg) versus ZD6474 (100 mg/kg) (p=0.01).

SMILES	Average time (days) from day 28 to reach an average tumour volume of 2 cm^3 (approximately 10% of mouse body weight)	Average tumour volume on day 28 after tumour cell injection
CC(=O)O[C@H]1C(=O)[C@@]2(C)[C@H]([C@H](OC(=O)c3ccccc3)[C@]3(O)C[C@H](OC(=O)[C@H](O)[C@@H](NC(=O)c4ccccc4)c4ccccc4)C(C)=C1C3(C)C)[C@]1(OC(C)=O)CO[C@@H]1C[C@@H]2O [Paclitaxel, paclitaxel]	14 (±3) days	0.95 (±0.1) cm^3
COc1cc2c(Nc3ccc(Br)cc3F)ncnc2cc1OCC1CCN(C)CC1 [ZD6474, 4-(4-bromo-2-fluoroanilino)-6-methoxy-7-(1-methylpiperidin-4-ylmethoxy)quinazoline]	29 (±2) days	0.1 (±0.05) cm^3
